Each structure is given as a SMILES string.

The subject of test [1] is basal keratinocytes of 3D-Epidermal skin models. Nature of the test: Click-iT EdU proliferation rate of basal keratinocytes. As to conditions: topical, 30 μl of 5% aqueous solution. The format is cell-based, human. Here is the method: (§1) Experimental application of test-products: In this study 30 μl of a 5% aqueous solution of the test substances were applied as follows using a calibrated pipette:
Proliferation testing of basal Keratinocytes (Example 2): topically with air exposed models as reference and analysis time points for proliferation rate after 3 and 6 days.
(§2) Application was done in duplicates (2 models) at all time points and models were cultured and analyzed in parallel under identical conditions.
EpiDerm 3D-Epidermal skin models: Nowadays in vitro test procedures are a very good alternative to animal experiments and become increasingly important for the cosmetic industry. For cosmetic products which are used over a longer period, dermatological tests for harmlessness are an essential prerequisite for a high application safety and customer satisfaction. During the development of new cosmetic products biological effects of particular active ingredients or complete formulations turn into focus of cosmetic interests. The human EpiDerm skin model is an in vitro reconstructed multilayered epithelial tissue which is cultured of normal human keratinocytes. […] The model is mitotically as well as metabolically active and expresses typical differentiation marker like pro-fillagrin 1 and cytokeratin 1/10. […]
Evaluation of the proliferation rate: Out of every used skin model, 6 mm punch biopsies were taken, embedded in O.C.T.™, cryoconserved in the gaseous phase of liquid nitrogen and subsequently cut into 5-6 μm sections. Nuclei from every section were counted (blue fluorescence, DAPI) and the percentage of proliferating nuclei (red fluorescence) was determined.
Fluorescence microscopy: Click-iT®-EdU tagged cells were stained in red (λex 594 nm). […] Click-iT®-EdU and DAPI stained cells were recorded solely and merged subsequently. The fluorescence analysis and documentation was performed with the ZEISS, Axio Scope A1HAL 100. […]

The test system of test [2] is human skin. Nature of the test: In-vivo skin elasticity test (cutometer MPA 580, R2-values). As to conditions: 4 weeks; for improvement in skin elasticity, treated area: twice a day. The text has this: (§3) Panelists: The test panel included 5 adult female volunteers with dry skin, elasticity less than average and crow's feet wrinkles next to the eyes. At the beginning of the application test all subjects have been checked by a dermatologist. Only subjects were allowed to join the trial with no pathological skin modifications diagnosed. During the application test all subjects had in case of acute skin irritations access to daily consultations from an attending medical specialist who was accompanying the test. Daily consultations about the skin conditions through the test-accompanying medical doctor were possible.
(§4) Experimental application of test-products: Test areas were around 3 cm in diameter. The test products were applied on the volar forearm (5% and 10% aqueous solutions; skin elasticity and hydration tests) as well as the crows's feet wrinkles (5% aqueous solution). The application of the preparations have been done twice a day during the whole test period (4 weeks). The subjects have been instructed not to use other care products in this test area. Untreated skin areas were used as control.
Elasticity test: The test was performed with the cutometer MPA 580 Fa. Courage+Khazaka electronics GmbH. The principle of measurement is based on the suction/elongation principle. To obtain start conditions the instrument was adjusted for 450 mbar low pressure. The suction time was defined to 5 secs. The relaxation time (abrupt loss of low pressure) was fixed to 3 secs. All measurements have been repeated three times for each test and control areas. Afterwards a mean for R2-values obtained from three independent measurements per area has been calculated. To perform measurements the instrument was adjusted for the named parameters before the test was started. All parameter adjustments described in literature as mainly used and reliable remained unchanged during the measurements. The cutometry has been performed at the beginning and at the end of the application period. R2-values have been measured and analyzed for each subject.

Test [3] concerns human skin. Nature of the test: In-vivo skin moisture (Corneometer CM 825). As to conditions: 4 weeks; for improvement in skin moisture, treated area: twice a day.
Source text: as §3, §4
Skin moisture: this aspect was tested using the Corneometer CM 825 (Firma Courage+Khazaka). The test products were applied twice a day on the relevant pre-determined skin areas during the application period. The test persons were acclimatized for 45 minutes at a temperature of 22 degrees centigrade and 60% relative humidity before every measurement, then, the skin measurement values were measured at three different places within the respective testing areas. The recorded values were averaged. Untreated skin close to the test area was used as the control measurement area. Measurements were taken before the application and after four weeks of application. All measurements were performed at least 10-12 hours after the last application of the formerly used product resp. the test product.

A further test concerns crow's feet wrinkles. Nature of the test: In-vivo single wrinkle depth (PRIMOS optical 3D measurement). As to conditions: 5% aqueous solution, four weeks, 5 subjects. Further details: species or system human.
Source text: as §3
Experimental application of test-products: Test areas were around 3 cm in diameter. […]
Single wrinkles depth: Optical 3D measurement using a PRIMOS (Phaseshift Rapid In vivo Measurement Of Skin) compact portable system was used for this measurement. PRIMOS comact portable was applied on an area of 40×30 mm and digital fotos of the measured area were made. […] Finally, the measurement data generated were processed and then evaluated. […] With the PRIMOS software the changes in structure of the epidermis can be classified quantitatively with the aid of various standardized surface measurement parameters in accordance with DIN (Deutsche Industrie Norm, German industrial standards) and ISO (International Standards Organisation). […] The skinfold depth can be measured by determining the distances. […]

The test system of test [4] is EpiDerm 3D-Epidermal skin models (normal human keratinocytes). The test can be described thus: MTT-Vitality-Assay, in-vitro epidermal vitality/viability. Type of test: cell-based. As to conditions: 30 μl of 5% aqueous solution once a day. The procedure:
as §1, §2
EpiDerm 3D-Epidermal skin models: Nowadays in vitro test procedures are a very good alternative to animal experiments and become increasingly important for the cosmetic industry. For cosmetic products which are used over a longer period, dermatological tests for harmlessness are an essential prerequisite for a high application safety and customer satisfaction. During the development of new cosmetic products biological effects of particular active ingredients or complete formulations turn into focus of cosmetic interests. The human EpiDerm skin model is an in vitro reconstructed multilayered epithelial tissue which is cultured of normal human keratinocytes. […] The model is mitotically as well as metabolically active and expresses typical differentiation marker like pro-fillagrin 1 and cytokeratin 1/10.
This term summarizes all metabolic activities which cells need for their basic requirements as well as for growth and proliferation. An established method to measure vitality of cells and tissues is the MTT-Vitality-Assay. […] The formazan crystals precipitate into the cellular cytosol, whereby the amount of precipitate correlates quantitatively with the general cellular vitality. Therefore the MTT-Assay can be considered as an indicator for the vitality or “Fitness” of a tissue, because cellular processes like respiration and energy extraction lead to the reduction of MTT.
Aim of this experiment was to examine the potential of the test substances to vitalize the tissue. For this purpose 3D-Epidermis skin models were used. […] After incubation period the bottom of model jars were dabbed with a sterile wipe to remove excessive medium/MTT mix. Models were transferred to a new sterile 24 well plate and 2 ml isopropyl was added subsequently. To avoid evaporation, plates were sealed with parafilm, covered with tinfoil and incubated 2 h on a shaker to extract formazan crystals. Optical density of released crystals of all extracts was determined at 570 nm. Measured values were analyzed and assessed. […] The vitality was derived from averages of determined ODs whereby the water treated, optimal cultured control was set as 100% vitality [vitality: 100*(ODtest substance/ODcontrol)].

[5] abbreviates: 3 days incubation, air exposed models 11.21%.
[6] abbreviates: crow's feet area, 5% aqueous solution.
Where [7] appears, read: volar forearm, 5% aqueous solution.
Setting [8] is: crow's feet (next to the eye), 5% aqueous solution.
Where [9] appears, read: crow's feet (next to the eyes), 5% aqueous solution.
Where [10] appears, read: volar forearm, 10% aqueous solution.

Consider `NCCCC[C@H](NC(=O)C[C@H](N)C(=O)O)C(=O)O` [β-L-aspartyl-L-lysine], for which the “percentage of proliferative cells (nuclei)” value in test [1] (setting [5]) was found to be 16.33%; in test [1] (6 days incubation, air exposed models 17.11%), 22.12%. The “average improvement in skin elasticity after control area deduction” value with human skin [2] (setting [6]) was 11.21%; in the test on human skin [2] (forearm, 5% aqueous solution), 6.18%. For the same compound, the “improvement in skin elasticity, treated area” value is recorded as 11.06% with human skin [2] (crow's feet, 5% aqueous solution) and “about 6.03%” in the test on human skin [2] (setting [7]). Moreover, the figures for the “improvement in skin moisture, treated area” value with human skin [3] (setting [8]) and in the test with human skin [3] (setting [7]) were “about 16.10%” and “about 2.05%”, respectively. Further, the “average improvement in skin moisture after control area deduction” value with human skin [3] (setting [9]) is given as 15.79%; in the test with human skin [3] (setting [7]), 1.74%. In addition, the “average improvement in the wrinkle depth” value in the test on crow's feet wrinkles was 20.02%.
Take `N=C(N)NCCC[C@H](NC(=O)C[C@H](N)C(=O)O)C(=O)O` [β-L-aspartyl-L-arginine]: the “vitality (MTT, water treated control = 100%)” value was found to be 127.23% in test [4] (48 h systematical (systemic) incubation, FIG. 1); 112.36% in test [4] (48 h topical application, FIG. 2); 118.16% in test [4] (120 h systemical incubation, FIG. 3); 120.61% in test [4] (120 h topical application, FIG. 4). Further, the “percentage of proliferative cells (nuclei)” value in test [1] (setting [5]) is listed as 30.98%. Moreover, the “average improvement in skin elasticity after control area deduction” value in the test with human skin [2] (setting [6]) is reported as 8.08%; in the test with human skin [2] (forearm, 5% aqueous solution), 9.26%; in the test on human skin [2] (forearm, 10% aqueous solution), 8.85%. Further, the “improvement in skin elasticity, treated area” value is recorded as “about 9.11%” in the test with human skin [2] (setting [7]) and about 8.70% with human skin [2] (setting [10]). The “improvement in skin moisture, treated area” value in the test on human skin [3] (setting [8]) is listed as “about 1.873%”; in the test with human skin [3] (setting [7]), “about 1.126%”; in the test with human skin [3] (setting [10]), about 0.871%. The figures for the “average improvement in skin moisture after control area deduction” value with human skin [3] (setting [9]), in the test on human skin [3] (setting [7]) and in the test with human skin [3] (setting [10]) were 1.56%, 0.82% and 0.56%, respectively. Further, the “average improvement in the wrinkle depth” value in the test with crow's feet wrinkles is reported as 16.4%.

(Values after patent US11020337B2, “Aspartyl-dipeptides for skin care and cosmetic use” (Cysal GmbH, priority 2016, dated 2021).)
